The experiment concerns the target S. pneumoniae Topoisomerase IV ATPase (ParE) (Streptococcus pneumoniae serotype 4, UniProt Q59961). The experiment in a line: S. pneumoniae Topoisomerase IV ATPase inhibition. It counts as biochemical. The conditions noted are these: values marked * are an average of two or more data points, read-out: % Inh (13 μM) of S. pneumoniae Topoisomerase IV ATPase. The method in brief: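 Phosphate-release ATPase assay: 1.25 nM ParE, 160 μM ATP, DNA-stimulated. Quench with malachite green/molybdate in 1 M HCl, read 650 nm; IC50 from 10-point dose series.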
Sequence of S. pneumoniae Topoisomerase IV ATPase (ParE) (Q59961 whole entry): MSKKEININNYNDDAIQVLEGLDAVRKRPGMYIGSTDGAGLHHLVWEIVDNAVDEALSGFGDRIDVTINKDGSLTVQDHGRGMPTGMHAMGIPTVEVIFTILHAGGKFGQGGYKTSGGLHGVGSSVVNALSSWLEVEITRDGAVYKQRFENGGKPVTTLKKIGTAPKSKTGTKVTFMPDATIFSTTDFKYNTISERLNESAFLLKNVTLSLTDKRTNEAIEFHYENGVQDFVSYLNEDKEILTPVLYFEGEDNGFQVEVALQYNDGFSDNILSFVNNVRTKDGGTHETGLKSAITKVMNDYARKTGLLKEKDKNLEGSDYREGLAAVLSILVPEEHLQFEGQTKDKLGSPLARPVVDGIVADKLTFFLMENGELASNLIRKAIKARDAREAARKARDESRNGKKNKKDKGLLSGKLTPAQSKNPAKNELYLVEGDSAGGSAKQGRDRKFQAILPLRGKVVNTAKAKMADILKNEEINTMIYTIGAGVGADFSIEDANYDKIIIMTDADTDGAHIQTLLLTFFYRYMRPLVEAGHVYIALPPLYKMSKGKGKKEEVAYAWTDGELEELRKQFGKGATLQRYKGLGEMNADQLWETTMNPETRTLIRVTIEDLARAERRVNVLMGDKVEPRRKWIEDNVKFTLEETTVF
Consider `Cc1cc(C#N)cc(Nc2ncc(-c3cncc(C(=O)O)c3)c(-n3nc(C(F)(F)F)cc3C)n2)c1` [Example 785, 5-{2-[(3-cyano-5-methylphenyl)amino]-4-[5-methyl-3-(trifluoromethyl)-1H-pyrazol-1-yl]pyrimidin-5-yl}pyridine-3-carboxylic acid], for which the inhibition at 13 µM stood at 100%. Next, `O=C(O)c1cncc(-c2cnc(Nc3ccc(F)c(Br)c3)nc2N2CCOCC2)c1` [Example 443]: 85%. `O=C(O)c1cncc(-c2cnc(Nc3ccc(F)c(Cl)c3)nc2N2CCCCCC2)c1` [Example 254, 5-[4-(azepan-1-yl)-2-[(3-chloro-4-fluorophenyl)amino]-pyrimidin-5-yl]pyridine-3-carboxylic acid]: the inhibition at 13 µM is 16.8%. Next, `Cc1cc(C(F)(F)F)nn1-c1nc(Nc2ccc(F)c(Cl)c2)ncc1-c1cncc(C(=O)NCCO)c1` [Example 927, 5-(2-(3-chloro-4-fluorophenylamino)-4-(5-methyl-3-(trifluoromethyl)-1H-pyrazol-1-yl)pyrimidin-5-yl)-N-(2-hydroxyethyl)nicotinamide]: 98%; `O=C(O)/C=C/c1cccc(-c2cnc(Nc3ccc(F)c(Cl)c3)nc2-n2ccc(C(F)(F)F)n2)c1` [Example 323, (2E)-3-(3-{2-[(3-chloro-4-fluorophenyl)amino]-4-[3-(trifluoromethyl)-1H-pyrazol-1-yl]pyrimidin-5-yl}phenyl)prop-2-enoic acid]: 99.5%; `Fc1ccc(Nc2ncc(-c3cncnc3)c(N3CCC3)n2)cc1Cl` [Example 67, 4-(azetidin-1-yl)-N-(3-chloro-4-fluorophenyl)-5-pyrimidin-5-ylpyrimidin-2-amine]: 53.4%.

`O=C(O)[C@@H]1C[C@H]1c1cncc(-c2cnc(Nc3ccc(F)c(Cl)c3)nc2-n2ccc(C(F)(F)F)n2)c1` [Example 573, (1,2-trans)-2-(5-(2-(3-chloro-4-fluorophenvlamino)-4-(3-(trifluoromethyl)-1H-pyrazol-1-yl)pyrimidin-5-yl)pyridin-3-yl)cyclopropanecarboxylic acid]: the inhibition at 13 µM came to 100%. Next, `CC1(C)[C@@H](C(=O)O)[C@@H]1c1cccc(-c2cnc(Nc3ccc(F)c(Cl)c3)nc2-n2ccc(C(F)(F)F)n2)c1` [Example 572, (1,3-trans)-3-(3-(2-(3-chloro-4-fluorophenylamino)-4-(3-(trifluoromethyl)-1H-pyrazol-1-yl)pyrimidin-5-yl)phenyl)-2,2-dimethylcyclopropanecarboxylic acid]: 100%.

Consider `CN(C)CCCNc1nc(Nc2ccc(F)c(Cl)c2)ncc1-c1cnc(N)nc1` [Example 19, N^2-(3-chloro-4-fluorophenyl)-N^4-[3-(dimethylamino)propyl]-5,5′-bipyrimidin-2,2′,4-triamine], for which the inhibition at 13 µM is 95.8%.

As for `CCOC(=O)c1cncc(-c2cnc(Nc3ccc(F)c(Cl)c3)nc2NCCCc2nc3ccccc3[nH]2)c1` [Example 140, ethyl 5-(4-(3-(1H-benzo[d]imidazol-2-yl)propylamino)-2-(3-chloro-4-fluorophenylamino)pyrimidin-5-yl)nicotinate], the inhibition at 13 µM turned out to be 83.5%. For the compound `CCOC(=O)c1cncc(-c2cnc(Nc3ccc(F)c(Cl)c3)nc2NCCc2ccncc2)c1` [Example 103, 5-[2-(3-Chloro-4-fluoro-phenylamino)-4-(2-pyridin-4-yl-ethylamino)-pyrimidin-5-yl]-nicotinic acid ethyl ester], the inhibition at 13 µM amounted to 79.5%. Then `CS(=O)(=O)c1cccc(Nc2ncc(-c3cccc(/C=C/C(=O)O)c3)c(-n3ccc(C(F)(F)F)n3)n2)c1` [Example 623, (2E)-3-[3-(2-{[3-(methylsulfonyl)phenyl]amino}-4-[3-(trifluoromethyl)-1H-pyrazol-1-yl]pyrimidin-5-yl)phenyl]prop-2-enoic acid], with 100%; and `COCCn1cc(-c2cnc(Nc3ccc(F)c(Cl)c3)nc2-n2nc(C(F)(F)F)cc2C)cc(C(=O)O)c1=O` [Example 1082, 5-(2-(3-Chloro-4-fluorophenylamino)-4-(5-methyl-3-(trifluoromethyl)-1H-pyrazol-1-yl)pyrimidin-5-yl)-1-(2-methoxyethyl)-2-oxo-1,2-dihydropyridine-3-carboxylic acid], with 100%; and `Cc1cc(C(F)(F)F)nn1-c1nc(Nc2cccc(F)c2)ncc1-c1cccc(/C=C/C(=O)O)c1` [Example 622, (2E)-3-(3-{2-[(3-fluorophenyl)amino]-4-[5-methyl-3-(trifluoromethyl)-1H-pyrazol-1-yl]pyrimidin-5-yl}phenyl)prop-2-enoic acid], with 98%. Next, `COc1cc(F)cc(Nc2ncc(-c3cc(C(=O)O)c(=O)n(C)c3)c(-n3nc(C(F)(F)F)cc3C)n2)c1` [Example 921, 5-(2-(3-fluoro-5-methoxyphenylamino)-4-(5-methyl-3-(trifluoromethyl)-1H-pyrazol-1-yl)pyrimidin-5-yl)-1-methyl-2-oxo-1,2-dihydropyridine-3-carboxylic acid]: 99%; `COc1cc(Nc2ncc(-c3cccc(/C=C/C(N)=O)c3)c(NCCc3ccncc3)n2)cc(C(F)(F)F)c1` [Example 373, (E)-3-(3-(2-(3-methoxy-5-(trifluoromethyl)phenylamino)-4-(2-(pyridin-4-yl)ethylamino)pyrimidin-5-yl)phenyl)acrylamide]: 82.8%. Then `Cc1cc(C(F)(F)F)nn1-c1nc(Nc2ccc(F)c(Cl)c2)ncc1-c1cc(C(=O)O)c(=O)n(CCN2CCOCC2)c1` [Example 1076, 5-(2-(3-Chloro-4-fluorophenylamino)-4-(5-methyl-3-(trifluoromethyl)-1H-pyrazol-1-yl)pyrimidin-5-yl)-1-(2-morpholinoethyl)-2-oxo-1,2-dihydrpyridine-3-carboxylic acid], with 99%; and `O=C(O)CS(=O)(=O)c1cccc(-c2cnc(Nc3ccc(F)c(Cl)c3)nc2-n2ccc(C(F)(F)F)n2)c1` [Example 1099, 2-(3-(2-(3-chloro-4-fluorophenylamino)-4-(3-(trifluoromethyl)-1H-pyrazol-1-yl)pyrimidin-5yl)phenylsulfonyl)acetic acid], with 100%; and `CCOC(=O)c1cncc(-c2cnc(Nc3ccc(F)c(Cl)c3)nc2NCCN(C)C)c1` [Example 93], with 79.6%. `CN1CCN(CCNc2nc(Nc3ccc(F)c(Cl)c3)ncc2-c2cncc(C(=O)O)c2)CC1` [Example 263, 5-(2-[(3-chloro-4-fluorophenyl)amino]-4-{[2-(4-methylpiperazin-1-yl)ethyl]amino}pyrimidin-5-yl)pyridine-3-carboxylate acid]: the inhibition at 13 µM was 86.2%. For the compound `CN(C)CCCNc1nc(Nc2ccc(F)c(Cl)c2)ncc1-c1cccc(NS(=O)(=O)N(C)C)c1` [Example 11, N′-[3-(2-[(3-chloro-4-fluorophenyl)amino]-4-{[3-(dimethylamino)propyl]amino}pyrimidin-5-yl)phenyl]-N,N-dimethylsulfonamide], the inhibition at 13 µM turned out to be 18.2%. Turning to `COCCCNc1nc(Nc2ccc(F)c(Cl)c2)ncc1-c1ccc2cc(C(=O)O)[nH]c2c1` [Example 1061, 6-(2-(3-chloro-4-fluorophenylamino)-4-(3-methoxypropylamino)pyrimidin-5-yl)-1H-indole-2-carboxylic acid], the inhibition at 13 µM was 92%.

Regarding `COc1cc(C)cc(Nc2ncc(-c3cc(C(=O)O)c(=O)n(C)c3)c(-n3nc(C(F)(F)F)cc3C)n2)c1` [Example 861, 5-{2-[(3-methoxy-5-methylphenyl)amino]-4-[5-methyl-3-(trifluoromethyl)-1H-pyrazol-1-yl]pyrimidin-5-yl}-1-methyl-2-oxo-1,2-dihydropyridine-3-carboxylic acid], the inhibition at 13 µM was 100%. Turning to `Cc1cc(C)cc(Nc2ncc(-c3cc(C(=O)O)cnc3OCCN(C)C)c(-n3nc(C(F)(F)F)cc3C)n2)c1` [Example 1145, 6-(2-(dimethylamino)ethoxy)-5-(2-(3,5-dimethylphenylamino)-4-(5-methyl-3-(trifluoromethyl)-1H-pyrazol-1-yl)pyrimidin-5-yl)nicotinic acid], the inhibition at 13 µM was 100%. For `COc1cc(Nc2ncc(-c3cnc(OC)c(C(=O)NOCCN4CCOCC4)c3)c(-n3ccc(C(F)(F)F)n3)n2)cc(OC)c1` [Example 1167, 5-(2-(3,5-dimethoxyphenylamino)-4-(3-(trifluoromethyl)-1H-pyrazol-1-yl)pyrimidin-5-yl)-2-methoxy-N-(2-morpholinoethoxy)nicotinamide], the inhibition at 13 µM is 100%. Next, `COCCCNc1nc(Nc2ccc(F)c(Cl)c2)ncc1-c1nnn[nH]1` [Example 937, N2-(3-chloro-4-fluorophenyl)-N4-(3-methoxypropyl)-5-(1H-tetrazol-5-yl)pyrimidine-2,4-diamine]: 17%; `COc1ncc(-c2cnc(Nc3cc(C)cc(C#N)c3)nc2-n2ccc(C(F)(F)F)n2)cc1C(=O)O` [Example 780, 5-{2-[(3-cyano-5-methylphenyl)amino]-4-[3-(trifluoromethyl)-1H-pyrazol-1-yl]pyrimidin-5-yl}-2-methoxypyridine-3-carboxylic acid]: 100%.

With `COc1cc(Nc2ncc(-c3cnc(OCCN4CCOCC4)c(C(=O)O)c3)c(-n3nc(C(F)(F)F)cc3C)n2)cc(OC)c1` [Example 1136, 5-(2-(3,5-dimethoxyphenylamino)-4-(5-methyl-3-(trifluoromethyl)-1H-pyrazol-1-yl)pyrimidin-5-yl)-2-(2-morpholinoethoxy)nicotinic acid], the inhibition at 13 µM came out at 99%. Next, `CN(C)CCCNc1nc(Nc2ccc(F)c(F)c2)ncc1-c1cccc(/C=C/C(=O)O)c1` [Example 336, (E)-3-(3-(2-(3,4-difluorophenylamino)-4-(3-(dimethylamino)propylamino)pyrimidin-5-yl)phenyl)acrylic acid]: 83.7%.

These data come from patent US20100137313A1 (ASTRAZENECA AB, priority 2008, published 2010).
